In patent US11466044B2 (WAYNE STATE UNIVERSITY, priority 2017, dated 2022):
≈ marks a conversion by molar mass, not a printed value. Where two headings read alike, the source gives them in different places.

Legend:
[1] = system: mitochondrial ribosome (human chimeric); format: biochemical; conditions: ribosomes with a human mitochondrial decoding site; read-out: IC50 Mitoch.
Excerpt: (§1) The antiribosomal activity of these compounds was investigated with cell-free translation assays using both wild type bacterial ribosomes and hybrid ribosomes carrying eukaryotic decoding A sites enabling the prediction of selectivity.

[2] = system: E coli carrying specific resistance determinants; assay: MIC by broth microdilution, E coli carrying specific resistance determinants; format: cell-based
[3] = system: wild type bacterial ribosomes; assay: in-vitro translation assay, bacterial ribosomes; format: biochemical
Excerpt: as §1

M. abscessus = assay: MIC by broth microdilution, M. abscessus; format: cell-based

Structure (SMILES): NC[C@@H]1O[C@H](O[C@H]2[C@@H](O)[C@H](O[C@@H]3[C@@H](O)[C@H](N)C[C@H](N)[C@H]3O[C@H]3O[C@H](CN)[C@@H](O)[C@H](O)[C@H]3N)O[C@@H]2CO)[C@H](N)[C@@H](O)[C@@H]1O [neomycin, Neomycin B, reference compound]
- IC50 [1]: 4300 nM
- MIC E. coli AAC(2′) AG106 ([2]; AAC(2′) AG106, Table 4 (Example 3)): 8 µg/mL (≈ 13 µM)
- MIC E. coli AAC(2′) pH434 ([2]; AAC(2′) pH434, Table 4 (Example 3)): >64 μg/mL
- MIC AAC(6′) ([2]; AAC(6′), Table 3 (Example 2)): 4 µg/mL (≈ 6.51 µM)
- MIC50 E coli AG07 AAC(3) ([2]; AG07 AAC(3), Table 2A (Example 2)): 4 µg/mL (≈ 6.51 µM)
- MIC50 E coli AG09 AAC(6′) ([2]; AG09 AAC(6′), Table 2A (Example 2)): 8 µg/mL (≈ 13 µM)
- MIC50 E coli AG036 ANT(4′,4″) ([2]; Table 2A (Example 2)): 32 µg/mL (≈ 52.1 µM)
- MIC50 E coli AG036 ANT(4′,4″) ([2]; Table 2B (Example 2)): 4 to 8 µg/mL
- MIC50 E coli AG037 APH(3′)-III ([2]; AG037 APH(3′)-III, Table 2B (Example 2)): >64 µg/mL
- MIC50 E coli AG037 APH(3′,5″) ([2]; AG037 APH(3′,5″), Table 2A (Example 2)): >256 µg/mL
- MIC50 E coli AG103 armA ([2]; AG103 ArmA, Table 2A (Example 2)): 0.5 µg/mL (≈ 0.813 µM)
- MIC50 E coli AG103 armA ([2]; AG103 armA, Table 2B (Example 2)): 0.25 to 0.5 µg/mL
- MIC50 E coli AG105 AAC(2′) ([2]; AG105 AAC(2′), Table 2A (Example 2)): 2 µg/mL (≈ 3.25 µM)
- MIC E. coli AG106 AAC(2′)-Ia ([2]; AG106 AAC(2′)-Ia, Table 5 (Example 3)): 8 µg/mL (≈ 13 µM)
- MIC E coli AG106 AAC(2′) ([2]; AG106 AAC(2′), Table 2 (Example 3)): 8 µg/mL (≈ 13 µM)
- MIC ANT(4′) ([2]; ANT(4′), Table 3 (Example 2)): 4 to 8 µg/mL
- MIC APH(3)-VI ([2]; APH(3)-VI, Table 3 (Example 1)): 32 to 64 µg/mL
- MIC APH(3′)-I ([2]; APH(3′)-I, Table 3 (Example 1)): >64 µg/mL
- MIC APH(3′)-II ([2]; Table 3 (Example 1)): 64 µg/mL (≈ 104 µM)
- MIC APH(3′)-II ([2]; Table 3 (Example 2)): 64 µg/mL (≈ 104 µM)
- MIC APH(3′)-III ([2]; APH(3′)-III, Table 3 (Example 1)): >64 µg/mL
- MIC APH(3′)-VI ([2]; APH(3′)-VI, Table 3 (Example 2)): 32 to 64 µg/mL
- MIC AG036 ANT(4′,4′′) ([2]; E. coli strain AG036, ANT(4′,4′′)): 4 to 8 µg/mL
- MIC AG037 APH(3′)-III ([2]; E. coli strain AG037, APH(3′)-III): >64 µg/mL
- MIC AG103 armA ([2]; E. coli strain AG103, armA): 0.25 to 0.5 µg/mL
- MIC pH414 AAC(6′)-I ([2]; E. coli strain pH414, AAC(6′)-I): 2 μg/ml
- MIC pH415 AAC(6′)-II ([2]; E. coli strain pH415, AAC(6′)-II): 4 μg/ml
- MIC pH421 APH(3)-I ([2]; E. coli strain pH421, APH(3)-I): >128 μg/ml
- MIC pH422 APH(3′)-II ([2]; E. coli strain pH422, APH(3′)-II): 64 μg/ml
- MIC pH423 APH(3′)-VI ([2]; E. coli strain pH423, APH(3′)-VI): 32-64 μg/ml
- MIC pH432 ANT(4′) ([2]; E. coli strain pH432, ANT(4′)): 1 μg/ml
- MIC AG003 E. coli AAC(3)-II ([2]; clinical isolate AG003, AAC(3)-II): 1 µg/mL (≈ 1.63 µM)
- MIC AG163 E. coli APH(3′)-I ([2]; clinical isolate AG163 APH(3′)-I, Table 2 (Example 4)): >64 µg/mL
- MIC AG166 E. coli APH(3′)-II ([2]; clinical isolate AG166 APH(3′)-II, Table 2 (Example 4)): 64 µg/mL (≈ 104 µM)
- MIC AG037 E. coli APH(3′)-III ([2]; engineered strain AG037 APH(3′)-III, Table 2 (Example 4)): >64 µg/mL
- MIC pH421 E. coli APH(3′)-I ([2]; engineered strain pH421 APH(3′)-I, Table 2 (Example 4)): >128 μg/ml
- MIC pH422 E. coli APH(3′)-II ([2]; engineered strain pH422 APH(3′)-II, Table 2 (Example 4)): 64 μg/ml
- MIC pH423 E. coli APH(3′)-VI ([2]; engineered strain pH423 APH(3′)-VI, Table 2 (Example 4)): 32-64 μg/ml
- MIC E. coli pGB2armA armA ([2]; pGB2armA armA, Table 5 (Example 3)): 0.25-0.5 μg/ml
- MIC50 E coli pH414 AAC(6′)-I ([2]; pH414 AAC(6′)-I, Table 2B (Example 2)): 2 μg/ml
- MIC50 E coli pH415 AAC(6′)-II ([2]; pH415 AAC(6′)-II, Table 2B (Example 2)): 4 μg/ml
- MIC50 E coli pH421 APH(3′)-I ([2]; pH421 APH(3′)-I, Table 2B (Example 2)): >128 μg/ml
- MIC50 E coli pH422 APH(3′)-II ([2]; pH422 APH(3′)-II, Table 2B (Example 2)): 64 μg/ml
- MIC50 E coli pH423 APH(3)-VI ([2]; pH423 APH(3)-VI, Table 2B (Example 2)): 32-64 μg/ml
- MIC50 E coli pH432 ANT(4′) ([2]; pH432 ANT(4′), Table 2B (Example 2)): 1 μg/ml
- MIC E. coli pH434 AAC(2′)-Ib ([2]; pH434 AAC(2′)-Ib, Table 5 (Example 3)): >64 μg/ml
- IC50 ([3]; Mycobacterium smegmatis ribosomes, read-out: IC50 Bacterial): 40 nM
- IC50 ([3]; bacterial ribosome, Table 3 (Example 1), read-out: IC50 Bac): 40 nM
- IC50 ([3]; bacterial ribosome, Table 3 (Example 2), read-out: IC50 Bac): 40 nM
- IC50 ([3]; bacterial ribosome, Table 4 (Example 3), read-out: IC50 Bac): 40 nM
- MIC M. abscessus ATCC 19977 WT (M. abscessus; ATCC 19977 WT, Table 5 (Example 3)): 16 µg/mL (≈ 26 µM)
- MIC M. abscessus ATCC (M. abscessus; ATCC, Table 4 (Example 3)): 16 µg/mL (≈ 26 µM)
- MIC M. abscessus Clin. Isol. (M. abscessus; Clin. Isol., Table 4 (Example 3)): 16 µg/mL (≈ 26 µM)
- MIC M. abscessus clinical isolate (M. abscessus; clinical isolate, Table 5 (Example 3)): 16 µg/mL (≈ 26 µM)
- MIC M. abscessus engineered Δeis2 (M. abscessus; engineered Δeis2, Table 5 (Example 3)): 4 µg/mL (≈ 6.51 µM)
